From patent US7932270B2 (Cytokinetics, Inc., priority 2006, dated 2011) come the findings set out here.

For the assay, the target named is T1, chicken gizzard smooth muscle myosin subfragment-1 chemically crosslinked to cardiac or skeletal actin (Gallus gallus, UniProt P10587).
T1 construct: chicken gizzard smooth muscle myosin subfragment-1; from tissue; host or cells: chicken gizzard
Nature of the assay: Smooth muscle myosin ATPase dose response assay (pyruvate kinase/horseradish peroxidase/pyruvate oxidase-coupled, amplex red fluorescence). The format is biochemical. To be noted: read-out: IC50 Arithmetic Mean. The gist of the method: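 Chicken gizzard myosin S1 crosslinked to cardiac or skeletal actin, titrated to a set hydrolysis rate; 0.15 mM ATP, 12 mM PIPES pH 7.00, 100 mM KCl, 2 mM MgCl2. Pyruvate kinase/pyruvate oxidase/HRP coupling with amplex red fluorescence; IC50 from 4-parameter fit.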

T1 sequence (P02607 2-151): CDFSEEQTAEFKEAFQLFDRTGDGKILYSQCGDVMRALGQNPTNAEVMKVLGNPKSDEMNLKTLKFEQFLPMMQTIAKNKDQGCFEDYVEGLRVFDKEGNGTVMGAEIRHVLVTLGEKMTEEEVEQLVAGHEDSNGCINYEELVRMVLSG
T1 sequence (P10587 84-789): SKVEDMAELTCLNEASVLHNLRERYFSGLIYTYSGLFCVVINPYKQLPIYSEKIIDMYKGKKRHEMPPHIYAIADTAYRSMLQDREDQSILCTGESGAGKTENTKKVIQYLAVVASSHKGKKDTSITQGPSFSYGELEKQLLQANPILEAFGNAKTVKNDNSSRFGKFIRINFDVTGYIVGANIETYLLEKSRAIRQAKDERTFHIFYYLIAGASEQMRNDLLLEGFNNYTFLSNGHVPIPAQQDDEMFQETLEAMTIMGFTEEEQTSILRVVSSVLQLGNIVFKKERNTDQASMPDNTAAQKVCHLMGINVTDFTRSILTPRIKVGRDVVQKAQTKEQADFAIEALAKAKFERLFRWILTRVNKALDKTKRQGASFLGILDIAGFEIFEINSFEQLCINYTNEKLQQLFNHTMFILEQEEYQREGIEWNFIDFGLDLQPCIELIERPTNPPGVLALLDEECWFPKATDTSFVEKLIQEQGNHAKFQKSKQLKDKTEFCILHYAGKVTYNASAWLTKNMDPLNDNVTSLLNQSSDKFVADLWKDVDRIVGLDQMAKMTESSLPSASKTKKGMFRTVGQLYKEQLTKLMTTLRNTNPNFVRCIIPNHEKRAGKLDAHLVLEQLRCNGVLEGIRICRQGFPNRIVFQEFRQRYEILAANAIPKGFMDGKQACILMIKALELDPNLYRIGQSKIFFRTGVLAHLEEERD

As for `CNC(=O)[C@@H](N)CCNC(=O)c1ccc(-c2ccccc2C#N)nc1NCCc1cccc(F)c1` [(2S)-2-amino-4-[(6-(2-cyanophenyl)-2-{[2-(3-fluorophenyl)ethyl]amino}(3-pyridyl))carbonylamino]-N-methylbutanamide], the IC50 (as a rule, the midpoint of a concentration-inhibition curve) was determined as 5020 nM. As for `CNC(=O)[C@H](CNC(=O)OC(C)(C)C)NC(=O)c1ccc(-c2ccccc2C#N)nc1NCCc1cccc(F)c1` [(2S)-3-[(tert-butoxy)carbonylamino]-2-[(6-(2-cyanophenyl)-2-{[2-(3-fluorophenyl)ethyl]amino}(3-pyridyl))carbonylamino]-N-methylpropanamide], the IC50 worked out at 43600 nM. In the case of `CC(C)(C)OC(=O)NC[C@H](NC(=O)c1ccc(-c2ccccc2C#N)nc1NCCc1cccc(F)c1)C(=O)O` [(2S)-3-[(tert-butoxy)carbonylamino]-2-[(6-(2-cyanophenyl)-2-{[2-(3-fluorophenyl)ethyl]amino}(3-pyridyl))carbonylamino]propanoic acid], the IC50 was found to be 30400 nM. For `CN(C)C(=O)[C@H](CN)NC(=O)c1ccc(-c2ccccc2C#N)nc1NCCc1cccc(F)c1` [(2S)-3-amino-2-[(6-(2-cyanophenyl)-2-{[2-(3-fluorophenyl)ethyl]amino}(3-pyridyl))carbonylamino]-N,N-dimethylpropanamide], the IC50 turned out to be 23700 nM. Consider `CNC(=O)[C@H](CN)NC(=O)c1ccc(-c2ccccc2C#N)nc1NCCc1cccc(F)c1` [(2S)-3-amino-2-[(6-(2-cyanophenyl)-2-{[2-(3-fluorophenyl)ethyl]amino}(3-pyridyl))carbonylamino]-N-methylpropanamide], for which the IC50 is 3450 nM. With `N#Cc1ccccc1-c1ccc(C(=O)N[C@@H](CN)C(=O)O)c(NCCc2cccc(F)c2)n1` [(2S)-3-amino-2-[(6-(2-cyanophenyl)-2-{[2-(3-fluorophenyl)ethyl]amino}(3-pyridyl))carbonylamino]propanoic acid], the IC50 was 11100 nM. For `NCc1cc(C(=O)NCc2cccnc2)c(NCCc2cccc(F)c2)nc1-c1ccccc1` [(5-(aminomethyl)-2-{[2-(3-fluorophenyl)ethyl]amino}-6-phenyl(3-pyridyl))-N-(3-pyridylmethyl)carboxamide], the IC50 was determined as 8900 nM.

In the case of `Cn1cc(-c2nc(NCCc3cccc(F)c3)c(C(=O)NCc3cccnc3)cc2Br)cn1` [(5-bromo-2-{[2-(3-fluorophenyl)ethyl]amino}-6-(1-methylpyrazol-4-yl)(3-pyridyl))-N-(3-pyridylmethyl)carboxamide], the IC50 came to 23 nM. For the molecule `O=C(NCc1cccnc1)c1cc(Br)c(-c2cn[nH]c2)nc1NCCc1cccc(F)c1` [(5-bromo-2-{[2-(3-fluorophenyl)ethyl]amino}-6-pyrazol-4-yl(3-pyridyl))-N-(3-pyridylmethyl)carboxamide], the concentration for half-maximal inhibition (IC50) came out at 21 nM. Turning to `N#Cc1ccccc1-c1nc(NCCc2cccc(F)c2)c(C(=O)NCc2cccnc2)cc1Br` [(5-bromo-6-(2-cyanophenyl)-2-{[2-(3-fluorophenyl)ethyl]amino}(3-pyridyl))-N-(3-pyridylmethyl)carboxamide], the IC50 came out at 2650 nM.

In the case of `Cn1cc(-c2nc(NCCc3cccc(F)c3)c(C(=O)NCc3cccnc3)cc2Cl)cn1` [(5-chloro-2-{[2-(3-fluorophenyl)ethyl]amino}-6-(1-methylpyrazol-4-yl)(3-pyridyl))-N-(3-pyridylmethyl)carboxamide], the IC50 is 21 nM. Regarding `N#Cc1ccccc1-c1nc(NCCc2cccc(F)c2)c(C(=O)NCc2cccnc2)cc1Cl` [(5-chloro-6-(2-cyanophenyl)-2-{[2-(3-fluorophenyl)ethyl]amino}(3-pyridyl))-N-(3-pyridylmethyl)carboxamide], the half-maximal inhibitory concentration (IC50) was 512 nM. Consider `Cn1cc(-c2nc(NCCc3cccc(F)c3)c(C(=O)NCc3cccnc3)cc2C#N)cn1` [(5-cyano-2-{[2-(3-fluorophenyl)ethyl]amino}-6-(1-methylpyrazol-4-yl)(3-pyridyl))-N-(3-pyridylmethyl)carboxamide], for which the IC50 amounted to 21 nM. Turning to `N#Cc1ccccc1-c1nc(NCCc2cccc(F)c2)c(C(=O)NCc2cccnc2)cc1C#N` [(5-cyano-6-(2-cyanophenyl)-2-{[2-(3-fluorophenyl)ethyl]amino}(3-pyridyl))-N-(3-pyridylmethyl)carboxamide], the IC50 was found to be 318 nM. In the case of `Cn1cc(-c2nc(NCCc3cccc(F)c3)c(C(=O)NCC(C)(C)O)cc2F)cn1` [(5-fluoro-2-{[2-(3-fluorophenyl)ethyl]amino}-6-(1-methylpyrazol-4-yl)(3-pyridyl))-N-(2-hydroxy-2-methylpropyl)carboxamide], the IC50 was found to be 381 nM. Next, `Cn1cc(-c2nc(NCCc3cccc(F)c3)c(C(=O)NCC(C)(C)CO)cc2F)cn1` [(5-fluoro-2-{[2-(3-fluorophenyl)ethyl]amino}-6-(1-methylpyrazol-4-yl)(3-pyridyl))-N-(3-hydroxy-2,2-dimethylpropyl)carboxamide]: 224 nM; `Cn1cc(-c2nc(NCCc3cccc(F)c3)c(C(=O)NCc3cccnc3)cc2F)cn1` [(5-fluoro-2-{[2-(3-fluorophenyl)ethyl]amino}-6-(1-methylpyrazol-4-yl)(3-pyridyl))-N-(3-pyridylmethyl)carboxamide]: 12 nM.

With `Cn1cc(-c2nc(NCCc3cccc(F)c3)c(C(=O)NCc3cc[nH]n3)cc2F)cn1` [(5-fluoro-2-{[2-(3-fluorophenyl)ethyl]amino}-6-(1-methylpyrazol-4-yl)(3-pyridyl))-N-(pyrazol-3-ylmethyl)carboxamide], the IC50 is 20 nM. `Cn1cc(-c2nc(NCCc3cccc(F)c3)c(C(=O)NCC(CO)CO)cc2F)cn1` [(5-fluoro-2-{[2-(3-fluorophenyl)ethyl]amino}-6-(1-methylpyrazol-4-yl)(3-pyridyl))-N-[3-hydroxy-2-(hydroxymethyl)propyl]carboxamide]: the IC50 worked out at 134 nM.

In the case of `O=C(NCc1ccccn1)c1cc(F)c(-c2cn[nH]c2)nc1NCCc1cccc(F)c1` [(5-fluoro-2-{[2-(3-fluorophenyl)ethyl]amino}-6-pyrazol-4-yl(3-pyridyl))-N-(2-pyridylmethyl)carboxamide], the IC50 stood at 24 nM. On to `O=C(NCc1cccnc1)c1cc(F)c(-c2cn[nH]c2)nc1NCCc1cccc(F)c1` [(5-fluoro-2-{[2-(3-fluorophenyl)ethyl]amino}-6-pyrazol-4-yl(3-pyridyl))-N-(3-pyridylmethyl)carboxamide], for which the concentration for half-maximal inhibition (IC50) is 18 nM.

For `O=C(NCc1cc[nH]n1)c1cc(F)c(-c2cn[nH]c2)nc1NCCc1cccc(F)c1` [(5-fluoro-2-{[2-(3-fluorophenyl)ethyl]amino}-6-pyrazol-4-yl(3-pyridyl))-N-(pyrazol-3-ylmethyl)carboxamide], the IC50 came to 24 nM. Take `O=C(NCC(CO)CO)c1cc(F)c(-c2cn[nH]c2)nc1NCCc1cccc(F)c1` [(5-fluoro-2-{[2-(3-fluorophenyl)ethyl]amino}-6-pyrazol-4-yl(3-pyridyl))-N-[3-hydroxy-2-(hydroxymethyl)propyl]carboxamide]: the IC50 stood at 215 nM. Turning to `O=C(NCc1cccnc1)c1ccc(-c2nnn[nH]2)nc1NCCc1cccc(F)c1` [(6-(1H-1,2,3,4-tetraazol-5-yl)-2-{[2-(3-fluorophenyl)ethyl]amino}(3-pyridyl))-N-(3-pyridylmethyl)carboxamide], the IC50 stood at 78100 nM. For `O=C(NCc1cccnc1)c1ccc(-c2ccc(F)cc2Cl)nc1NCCc1cccc(F)c1` [(6-(2-chloro-4-fluorophenyl)-2-{[2-(3-fluorophenyl)ethyl]amino}(3-pyridyl))-N-(3-pyridylmethyl)carboxamide], the IC50 was 1380 nM. For `Cc1ccc(-c2ccc(C(=O)NCc3cccnc3)c(NCCc3cccc(F)c3)n2)c(Cl)c1` [(6-(2-chloro-4-methylphenyl)-2-{[2-(3-fluorophenyl)ethyl]amino}(3-pyridyl))-N-(3-pyridylmethyl)carboxamide], the IC50 worked out at 2080 nM.

For `O=C(NCc1cccnc1)c1ccc(-c2cc(F)ccc2Cl)nc1NCCc1cccc(F)c1` [(6-(2-chloro-5-fluorophenyl)-2-{[2-(3-fluorophenyl)ethyl]amino}(3-pyridyl))-N-(3-pyridylmethyl)carboxamide], the IC50 stood at 1330 nM.

Regarding `COc1ccc(Cl)c(-c2ccc(C(=O)NCc3cccnc3)c(NCCc3cccc(F)c3)n2)c1` [(6-(2-chloro-5-methoxyphenyl)-2-{[2-(3-fluorophenyl)ethyl]amino}(3-pyridyl))-N-(3-pyridylmethyl)carboxamide], the IC50 is 2000 nM. Take `O=C(NCc1cccnc1)c1ccc(-c2c(F)cccc2Cl)nc1NCCc1cccc(F)c1` [(6-(2-chloro-6-fluorophenyl)-2-{[2-(3-fluorophenyl)ethyl]amino}(3-pyridyl))-N-(3-pyridylmethyl)carboxamide]: the half-inhibitory concentration (IC50) turned out to be 540 nM. Consider `N#Cc1sccc1-c1ccc(C(=O)NCc2cccnc2)c(NCCc2cccc(F)c2)n1` [(6-(2-cyano(3-thienyl))-2-{[2-(3-fluorophenyl)ethyl]amino}(3-pyridyl))-N-(3-pyridylmethyl)carboxamide], for which the IC50 is 33 nM. For the molecule `N#Cc1cc(F)ccc1-c1ccc(C(=O)NCc2cccnc2)c(NCCc2cccc(F)c2)n1` [(6-(2-cyano-4-fluorophenyl)-2-{[2-(3-fluorophenyl)ethyl]amino}(3-pyridyl))-N-(3-pyridylmethyl)carboxamide], the IC50 worked out at 38 nM.

In the case of `Cc1ccc(-c2ccc(C(=O)NCc3cccnc3)c(NCCc3cccc(F)c3)n2)c(C#N)c1` [(6-(2-cyano-4-methylphenyl)-2-{[2-(3-fluorophenyl)ethyl]amino}(3-pyridyl))-N-(3-pyridylmethyl)carboxamide], the IC50 was 996 nM.

On to `N#Cc1ccc(F)cc1-c1ccc(C(=O)NCc2cccnc2)c(NCCc2cccc(F)c2)n1` [(6-(2-cyano-5-fluorophenyl)-2-{[2-(3-fluorophenyl)ethyl]amino}(3-pyridyl))-N-(3-pyridylmethyl)carboxamide], for which the IC50 was determined as 53 nM. Consider `COc1ccc(C#N)c(-c2ccc(C(=O)NCc3cccnc3)c(NCCc3cccc(F)c3)n2)c1` [(6-(2-cyano-5-methoxyphenyl)-2-{[2-(3-fluorophenyl)ethyl]amino}(3-pyridyl))-N-(3-pyridylmethyl)carboxamide], for which the IC50 came to 41 nM.
